# Assay results taken from publication PMC8878317, “Chemogenomics identifies acetyl-coenzyme A synthetase as a target for malaria treatment and prevention” (Cell Chemical Biology, 2022).
# Test system: P. falciparum 3D7 parasites
# Experiment: Metabolomic profiling of compound-treated parasites (LC/MS);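 as to Metabolite data: 3-Phosphoglycerate: Log2 fold change in abundance versus untreated parasite controls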;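 as to Metabolite data: Myo-Inositol: Log2 fold change in abundance versus untreated parasite controls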;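 as to Metabolite data: N-Carbamoyl-L-Aspartate: Log2 fold change in abundance versus untreated parasite controls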;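 as to Metabolite data: Nicotinate: Log2 fold change in abundance versus untreated parasite controls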
# Assay type: cell-based
# Parameters: Metabolite data: dTMP / Metabolite data: GMP / Metabolite data: S-Adenosyl-L-Homocysteine / Metabolite data: 1_3-Bisphosphoglyceric acid: scale not given here
# Description: The metabolite extraction protocol was performed as described elsewhere ([Allman et al., 2016]). Briefly, 1 mL of trophozoites that were magnetically purified to a concentration of 1×10^8 parasites/mL were placed into wells with 4 mL of RPMI 1640 media and allowed to recover for one hour. […] The culture was incubated for another 2.5 hr. The culture was centrifuged and quenched with 90% methanol containing 0.25 μM ^13C,^15N-Labeled-Aspartate, vortexed, and centrifuged. The supernatant was transferred to a new tube and dried for storage. Prior to analysis, the samples were resuspended to a final concentration of 1×10^8 parasites/mL in a solution of 3% methanol:water containing 1 μM chlorpropamide as an internal standard.
# The chromatographic conditions used in this experiment were performed with slight modifications from previous methods ([Zhang et al., 2018]). Briefly, a Waters XSelect HSS C18 column was used on a gradient reverse-phase chromatographic configuration with 97:3 water:methanol with 10 mM tributylamine and 15 mM acetic acid (solvent A) and methanol (solvent B). A Thermo-Scientific Exactive Plus Orbitrap mass spectrometer was operated in negative mode for the detection of the metabolites. Peak picking and integration were performed using El-Maven LC/MS data processing software. The peak data were then exported to Excel where metabolite areas were normalized to the internal standards, blank subtracted, and averaged by condition.
smiles,measurement,value
CCN(CC)S(=O)(=O)c1ccc(Cl)c(C(=O)Nc2ccc3nc(C)sc3c2)c1 [MMV019721-1],Metabolite data: 1_3-Bisphosphoglyceric acid,-0.1327
same,Metabolite data: 2_3-Diphosphoglyceric acid,-0.1327
same,Metabolite data: 3-Phosphoglycerate,0.1031
same,Metabolite data: 4-Aminobutyrate,0.07842
same,Metabolite data: 4-Phosphopantothenate,-0.4201
same,Metabolite data: 4-phosphopantetheine,0.1181
same,Metabolite data: 5-aminopentanoic acid,0.1488
same,Metabolite data: 5-phosphoribosyl-1-pyrophosphate,-0.2633
same,Metabolite data: 6-Phospho-D-Gluconate,-0.03558
same,Metabolite data: ADP-D-Glucose,-0.0516
same,Metabolite data: Acetyl-CoA,-1.632
same,Metabolite data: Acetyllysine,-1.142
same,Metabolite data: Aconitate,0.3403
same,Metabolite data: CDP,0.8015
same,Metabolite data: CDP-Ethanolamine,-0.104
same,Metabolite data: CDP-choline,-0.1284
same,Metabolite data: CMP,0.9966
same,Metabolite data: CTP,0.6705
same,Metabolite data: Citrate/Isocitrate,0.04997
same,Metabolite data: Cyclic-AMP,0.2994
same,Metabolite data: Dihydroorotate,-0.5549
same,Metabolite data: FAD,0.1056
same,Metabolite data: FMN,-0.0123
same,"Metabolite data: Fructose-1,6-Bisphosphate",-0.009501
same,Metabolite data: Fumarate,0.02182
same,Metabolite data: GDP,0.2889
same,Metabolite data: GMP,0.4991
same,Metabolite data: GTP,0.06975
same,Metabolite data: Glucose-1/6-Phosphate,-0.427
same,Metabolite data: Glutathione Disulfide,0.05831
same,Metabolite data: Hexose,0.379
same,Metabolite data: Hydroxyisocaproic acid,-0.1664
same,Metabolite data: Indole,0.2013
same,Metabolite data: Ketoleucine,-0.05747
same,Metabolite data: L-arginino-succinate,0.0004889
same,Metabolite data: Lactate,0.02998
same,Metabolite data: Malate,0.2897
same,Metabolite data: Myo-Inositol,0.2086
same,Metabolite data: N-Acetyl-Glutamate,-0.6054
same,Metabolite data: N-Acetyl-L-Alanine,0.6768
same,Metabolite data: N-Acetyl-L-Ornithine,-0.7962
same,Metabolite data: N-Carbamoyl-L-Aspartate,-1.055
same,Metabolite data: NAD+,0.01132
same,Metabolite data: NADH,0.3116
same,Metabolite data: NADP+,-0.07183
same,Metabolite data: NADPH,0.3145
same,Metabolite data: Nicotinate,-0.004899
same,Metabolite data: Octulose 8/1-Phosphate,0.05155
same,Metabolite data: Orotate,-0.6691
same,Metabolite data: PD,-0.67
same,Metabolite data: PE,-0.6545
same,Metabolite data: PEEK,-0.6134
same,Metabolite data: Phenol Red,0.04234
same,Metabolite data: Pyroglutamic acid,0.6121
same,Metabolite data: S-Adenosyl-L-Homocysteine,-0.2319
same,Metabolite data: S-methyl-5'-thioadenosine,-0.02605
same,Metabolite data: SD,-0.5163
same,Metabolite data: Sedoheptulose Bisphosphate,-0.09842
same,Metabolite data: UDP,0.4977
same,Metabolite data: UDP-D-Glucose,0.03674
same,Metabolite data: UDP-D-Glucuronate,0.09403
same,Metabolite data: UDP-N-Acetyl-Glucosamine,-0.09294
same,Metabolite data: UMP,0.6643
same,Metabolite data: UTP,0.267
same,Metabolite data: a-ketoglutarate,0.1182
same,Metabolite data: acetyl-aspartate,0.3762
same,Metabolite data: arginine,0.5929
same,Metabolite data: asparagine,-0.2373
same,Metabolite data: aspartate,0.131
same,Metabolite data: biotin,-0.04985
same,Metabolite data: chlorpropamide,0.3559
same,Metabolite data: coenzyme A,0.324
same,Metabolite data: dAMP,0.02964
same,Metabolite data: dATP,0.04443
same,Metabolite data: dCDP,0.4313
same,Metabolite data: dCMP,0.6234
same,Metabolite data: dCTP,0.2767
same,Metabolite data: dGDP/ADP,0.453
same,Metabolite data: dGMP/AMP,0.01705
same,Metabolite data: dGTP/ATP,-0.2944
same,Metabolite data: dTDP,0.442
same,Metabolite data: dTMP,0.5345
same,Metabolite data: dTTP,-0.02333
same,Metabolite data: folate,0.09364
same,Metabolite data: glucono-lactone,0.02131
same,Metabolite data: glutamate,0.09413
same,Metabolite data: glutamine,0.06047
same,Metabolite data: glutathione,-0.1419
same,Metabolite data: histidine,-0.01478
same,Metabolite data: hydroxyproline/Aminolevulinate,0.7882
same,Metabolite data: isoleucine,0.1307
same,Metabolite data: leucine,0.06401
same,Metabolite data: maleic acid,0.03547
same,Metabolite data: methionine,0.07829
same,Metabolite data: nicotinamide mononucleotide,-0.2621
same,Metabolite data: orotidine-5'-phosphate,-2.856
O=C(NNC(=O)c1csnn1)c1ccc(Cl)cc1 [MMV084978-1],Metabolite data: 1_3-Bisphosphoglyceric acid,0.1496
same,Metabolite data: 2_3-Diphosphoglyceric acid,0.1496
same,Metabolite data: 3-Phosphoglycerate,0.2498
same,Metabolite data: 4-Aminobutyrate,-0.07219
same,Metabolite data: 4-Phosphopantothenate,-0.08759
same,Metabolite data: 4-phosphopantetheine,-0.1079
same,Metabolite data: 5-aminopentanoic acid,0
same,Metabolite data: 5-phosphoribosyl-1-pyrophosphate,0
same,Metabolite data: 6-Phospho-D-Gluconate,-0.01315
same,Metabolite data: ADP-D-Glucose,0.08201
same,Metabolite data: Acetyl-CoA,-3.327
same,Metabolite data: Acetyllysine,-0.5311
same,Metabolite data: Aconitate,-0.1935
same,Metabolite data: CDP,1.05
same,Metabolite data: CDP-Ethanolamine,0.1123
same,Metabolite data: CDP-choline,-0.1263
same,Metabolite data: CMP,1.555
same,Metabolite data: CTP,0.5959
same,Metabolite data: Citrate/Isocitrate,-0.25
same,Metabolite data: Cyclic-AMP,-0.2917
same,Metabolite data: Dihydroorotate,-1.467
same,Metabolite data: FAD,0.02838
same,Metabolite data: FMN,0.1073
same,"Metabolite data: Fructose-1,6-Bisphosphate",-0.1507
same,Metabolite data: Fumarate,-0.2504
same,Metabolite data: GDP,0.1753
same,Metabolite data: GMP,0.5608
same,Metabolite data: GTP,0.3192
same,Metabolite data: Glucose-1/6-Phosphate,0
same,Metabolite data: Glutathione Disulfide,-0.0421
same,Metabolite data: Hexose,0.4607
same,Metabolite data: Hydroxyisocaproic acid,0
same,Metabolite data: Indole,-0.02938
same,Metabolite data: Ketoleucine,0
same,Metabolite data: L-arginino-succinate,-0.1583
same,Metabolite data: Lactate,-0.4518
same,Metabolite data: Malate,-0.3092
same,Metabolite data: Myo-Inositol,-0.662
same,Metabolite data: N-Acetyl-Glutamate,-1.234
same,Metabolite data: N-Acetyl-L-Alanine,-0.1942
same,Metabolite data: N-Acetyl-L-Ornithine,-0.6079
same,Metabolite data: N-Carbamoyl-L-Aspartate,-1.86
same,Metabolite data: NAD+,-0.05754
same,Metabolite data: NADH,-0.03997
same,Metabolite data: NADP+,-0.01332
same,Metabolite data: NADPH,-0.02772
same,Metabolite data: Nicotinate,-0.2079
same,Metabolite data: Octulose 8/1-Phosphate,0.04337
same,Metabolite data: Orotate,-1.48
same,Metabolite data: PD,-0.5076
same,Metabolite data: PE,-0.5728
same,Metabolite data: PEEK,-0.4082
same,Metabolite data: Phenol Red,-0.09162
same,Metabolite data: Pyroglutamic acid,-0.04117
same,Metabolite data: S-Adenosyl-L-Homocysteine,-0.1413
same,Metabolite data: S-methyl-5'-thioadenosine,-0.2314
same,Metabolite data: SD,-0.5901
same,Metabolite data: Sedoheptulose Bisphosphate,-0.08586
same,Metabolite data: UDP,0.6291
same,Metabolite data: UDP-D-Glucose,0.0869
same,Metabolite data: UDP-D-Glucuronate,0.1009
same,Metabolite data: UDP-N-Acetyl-Glucosamine,-0.1998
same,Metabolite data: UMP,1.083
same,Metabolite data: UTP,0.2924
same,Metabolite data: a-ketoglutarate,-0.2708
same,Metabolite data: acetyl-aspartate,-0.01834
same,Metabolite data: arginine,0.1881
same,Metabolite data: asparagine,0.1209
same,Metabolite data: aspartate,0.4643
same,Metabolite data: biotin,-0.04446
same,Metabolite data: chlorpropamide,-1.60E-16
same,Metabolite data: coenzyme A,-0.006892
same,Metabolite data: dAMP,0.6117
same,Metabolite data: dATP,0.1596
same,Metabolite data: dCDP,-0.02418
same,Metabolite data: dCMP,0.3076
same,Metabolite data: dCTP,0.1432
same,Metabolite data: dGDP/ADP,-0.04263
same,Metabolite data: dGMP/AMP,-0.1821
same,Metabolite data: dGTP/ATP,0.1752
same,Metabolite data: dTDP,0.5413
same,Metabolite data: dTMP,0.4313
same,Metabolite data: dTTP,0.1959
same,Metabolite data: folate,-0.04496
same,Metabolite data: glucono-lactone,-0.03642
same,Metabolite data: glutamate,-0.04994
same,Metabolite data: glutamine,0.01906
same,Metabolite data: glutathione,-0.07032
same,Metabolite data: histidine,-0.03336
same,Metabolite data: hydroxyproline/Aminolevulinate,-0.01874
same,Metabolite data: isoleucine,0.003243
same,Metabolite data: leucine,-0.0173
same,Metabolite data: maleic acid,-0.282
same,Metabolite data: methionine,0.1423
same,Metabolite data: nicotinamide mononucleotide,-0.4705
same,Metabolite data: orotidine-5'-phosphate,-2.397
